Results published in ChEMBL document CHEMBL1132012, “Synthesis and sulfatase inhibitory activities of (E)- and (Z)-4-hydroxytamoxifen sulfamates” (Bioorg Med Chem Lett, 1999).

T1: Steryl-sulfatase (Rattus norvegicus, UniProt P15589)
T1 sequence (P15589 whole entry): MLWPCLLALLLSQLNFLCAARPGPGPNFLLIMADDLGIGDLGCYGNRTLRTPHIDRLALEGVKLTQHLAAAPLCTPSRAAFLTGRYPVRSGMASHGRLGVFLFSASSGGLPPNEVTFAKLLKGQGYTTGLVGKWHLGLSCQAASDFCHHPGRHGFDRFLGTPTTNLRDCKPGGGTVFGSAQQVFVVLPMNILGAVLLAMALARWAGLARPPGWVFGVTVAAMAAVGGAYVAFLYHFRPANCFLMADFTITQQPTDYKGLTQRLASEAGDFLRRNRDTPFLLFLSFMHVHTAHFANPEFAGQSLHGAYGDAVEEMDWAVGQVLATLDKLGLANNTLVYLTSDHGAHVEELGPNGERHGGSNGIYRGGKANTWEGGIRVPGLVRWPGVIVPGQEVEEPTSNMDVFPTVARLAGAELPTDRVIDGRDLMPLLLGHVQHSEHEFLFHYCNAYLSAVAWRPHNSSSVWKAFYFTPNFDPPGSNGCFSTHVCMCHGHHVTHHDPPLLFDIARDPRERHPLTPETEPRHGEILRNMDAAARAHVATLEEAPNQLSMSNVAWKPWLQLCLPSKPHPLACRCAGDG


Columns and labels:
Steryl-sulfatase = target: T1, Steryl-sulfatase; test: (§1) In vitro binding affinity against estrone sulfatase in rat liver microsomes; set-up: species or system Microsome
[1] = substrate: C[C@]12CC[C@@H]3c4ccc(OS(=O)(=O)O)cc4CC[C@H]3[C@@H]1CCC2=O; test: as §1; settings: Microsome

Molecule	Ki (Steryl-sulfatase)	Km [1]
CC/C(=C(/c1ccc(OCCN(C)C)cc1)c1ccc(OS(N)(=O)=O)cc1)c1ccccc1	35.9 µM	
CC/C(=C(\c1ccc(OCCN(C)C)cc1)c1ccc(OS(N)(=O)=O)cc1)c1ccccc1	> 500 µM	
Steryl-sulfatase (Rattus norvegicus), P15589 (protein) MLWPCLLALLLSQLNFLCAARPGPGPNFLLIMADDLGIGDLGCYGNRTLRTPHIDRLALEGVKLTQHLAAAPLCTPSRAAFLTGRYPVRSGMASHGRLGVFLFSASSGGLPPNEVTFAKLLKGQGYTTGLVGKWHLGLSCQAASDFCHHPGRHGFDRFLGTPTTNLRDCKPGGGTVFGSAQQVFVVLPMNILGAVLLAMALARWAGLARPPGWVFGVTVAAMAAVGGAYVAFLYHFRPANCFLMADFTITQQPTDYKGLTQRLASEAGDFLRRNRDTPFLLFLSFMHVHTAHFANPEFAGQSLHGAYGDAVEEMDWAVGQVLATLDKLGLANNTLVYLTSDHGAHVEELGPNGERHGGSNGIYRGGKANTWEGGIRVPGLVRWPGVIVPGQEVEEPTSNMDVFPTVARLAGAELPTDRVIDGRDLMPLLLGHVQHSEHEFLFHYCNAYLSAVAWRPHNSSSVWKAFYFTPNFDPPGSNGCFSTHVCMCHGHHVTHHDPPLLFDIARDPRERHPLTPETEPRHGEILRNMDAAARAHVATLEEAPNQLSMSNVAWKPWLQLCLPSKPHPLACRCAGDG		90.2 µM
